According to ChEMBL document CHEMBL1141366, “Isolation of quinic acid derivatives and flavonoids from the aerial parts of Lactuca indica L. and their hepatoprotective activity in vitro” (Bioorg Med Chem Lett, 2007):
The source made the active and inactive calls. The calls are words filed in the database; no cut-off is given here.

Experiments:
[1] = system: Hepatitis B virus; assay: Antiviral activity against hepatitis B virus assessed as inhibition of viral particle production; assay type: functional, organism-based
[2] = system: Hepatitis B virus; assay: Hepatoprotective activity against HBV in human HepG2.2.15 cells; assay type: functional, organism-based; conditions: HepG2 2.2.15

Row | Structure (SMILES) | Activity [1] | Activity [2]
1 | O=C(/C=C/c1ccc(O)c(O)c1)O[C@H]1[C@H](O)C[C@](O)(C(=O)O)C[C@H]1OC(=O)/C=C/c1ccc(O)c(O)c1 | Active | Active
2 | O=C(/C=C/c1ccc(O)c(O)c1)O[C@@H]1C[C@](O)(C(=O)O)C[C@@H](OC(=O)/C=C/c2ccc(O)c(O)c2)[C@H]1O | Active | Active
3 | O=C(/C=C/c1ccc(O)c(O)c1)O[C@@H]1C[C@@](O)(C(=O)O)C[C@@H](O)[C@@H]1O | Active | Active
4 | O=C(/C=C/c1ccc(O)c(O)c1)O[C@@H]1[C@H](O)C[C@@](O)(C(=O)O)C[C@H]1OC(=O)/C=C/c1ccc(O)c(O)c1 | Active | Active
5 | O=C(/C=C/c1ccc(O)c(O)c1)O[C@@H]1C[C@](O)(C(=O)O)C[C@@H](O)[C@H]1O | Active | Active
6 | O=C(/C=C/c1ccc(O)cc1)O[C@@H]1C[C@](O)(C(=O)O)C[C@@H](O)[C@H]1O | Active | Active
7 | O=c1c(O[C@@H]2O[C@H](CO)[C@@H](O)[C@H](O)[C@H]2O)c(-c2ccc(O)c(O)c2)oc2cc(O)cc(O)c12 | Active | Active
